Among the data in US10202389B2, “Pyrazolopyrimidinyl inhibitors of ubiquitin-activating enzyme” (Millennium Pharmaceuticals, Inc., priority 2012, dated 2019) are inhibition values, retold here.

For this assay, the target named is recombinant human UAE (Homo sapiens (Human), UniProt P22314). Nature of the assay: Ubiquitin Activating Enzyme (UAE) HTRF Assay. Conditions: read-out: % inhibition @0.111 μM. A general note: In TR-FRET formats the signal depends on donor and acceptor labels being close together.
Sequence of recombinant human UAE (P22314 whole entry): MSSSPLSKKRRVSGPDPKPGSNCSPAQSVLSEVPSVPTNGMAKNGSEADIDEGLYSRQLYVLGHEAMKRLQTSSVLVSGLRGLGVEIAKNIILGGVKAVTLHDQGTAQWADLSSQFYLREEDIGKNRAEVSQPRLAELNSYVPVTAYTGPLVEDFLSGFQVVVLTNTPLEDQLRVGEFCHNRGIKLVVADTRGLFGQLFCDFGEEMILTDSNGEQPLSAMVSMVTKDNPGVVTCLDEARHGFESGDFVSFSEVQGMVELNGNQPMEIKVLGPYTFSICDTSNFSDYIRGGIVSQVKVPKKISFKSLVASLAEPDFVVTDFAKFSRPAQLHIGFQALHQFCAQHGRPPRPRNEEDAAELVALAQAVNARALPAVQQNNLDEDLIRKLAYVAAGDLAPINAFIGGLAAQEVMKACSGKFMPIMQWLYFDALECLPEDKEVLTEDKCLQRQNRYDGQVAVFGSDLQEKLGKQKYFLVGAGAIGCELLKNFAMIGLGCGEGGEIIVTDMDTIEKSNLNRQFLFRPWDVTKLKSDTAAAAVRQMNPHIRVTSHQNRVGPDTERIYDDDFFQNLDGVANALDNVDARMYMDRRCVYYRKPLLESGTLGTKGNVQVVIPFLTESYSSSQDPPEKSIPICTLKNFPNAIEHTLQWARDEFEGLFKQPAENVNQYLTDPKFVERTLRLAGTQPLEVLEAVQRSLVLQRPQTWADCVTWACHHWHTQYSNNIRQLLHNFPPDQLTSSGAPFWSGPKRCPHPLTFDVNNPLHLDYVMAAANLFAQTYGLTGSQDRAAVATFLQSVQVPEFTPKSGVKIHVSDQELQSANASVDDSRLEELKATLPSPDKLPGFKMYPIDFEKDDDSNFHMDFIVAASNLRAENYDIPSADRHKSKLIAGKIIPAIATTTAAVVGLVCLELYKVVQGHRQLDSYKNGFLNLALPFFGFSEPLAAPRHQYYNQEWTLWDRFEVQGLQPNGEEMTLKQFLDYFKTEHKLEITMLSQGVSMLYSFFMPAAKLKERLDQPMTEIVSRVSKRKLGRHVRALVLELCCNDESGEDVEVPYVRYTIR

Method: After incubation for 120 minutes, quantification of the FRET is performed on the Pherostar (BMG).
For compounds whose values are marked with an asterisk (*), mouse UAE was used. For all other compounds, human UAE was used.

For `NS(=O)(=O)OC[C@H]1C[C@@H](Nc2ccnc3cc(-c4cccc(Oc5ccccc5)c4)nn23)[C@H](O)[C@@H]1O` (relative stereo) [Compound I-051, (rac)-((1R,2R,3S,4R)-2,3-Dihydroxy-4-((2-(3-phenoxyphenyl)pyrazolo[1,5-a]pyrimidin-7-yl)amino)cyclopentyl)methyl rel-sulfamate], the inhibition at 0.111 µM was 90%.

Consider `NS(=O)(=O)OC[C@H]1C[C@@H](Nc2ccnc3cc(-c4cc(C(F)(F)F)ccc4Cl)nn23)[C@H](O)[C@@H]1O` (relative stereo) [Compound I-030, (rac)-((1R,2R,3S,4R)-4-((2-(2-Chloro-5-(trifluoromethyl)phenyl)pyrazolo[1,5-a]pyrimidin-7-yl)amino)-2,3-dihydroxycyclopentyl)methyl rel-sulfamate], for which the inhibition at 0.111 µM came out at 99%.

Consider `NS(=O)(=O)OC[C@H]1C[C@@H](Nc2ccnc3cc(-c4ccccc4SC(F)(F)F)nn23)[C@H](O)[C@@H]1O` (relative stereo) [Compound I-079, (rac)-((1R,2R,3S,4R)-2,3-dihydroxy-4-(2-(2-(trifluoromethylthio)phenyl)pyrazolo[1,5-a]pyrimidin-7-ylamino)cyclopentyl)methyl rel-sulfamate], for which the inhibition at 0.111 µM came out at 75%.

For the compound `NS(=O)(=O)OC[C@H]1C[C@@H](Nc2ccnc3cc(-c4cccc(C(=O)c5ccccc5)c4)nn23)[C@H](O)[C@@H]1O` (relative stereo) [Compound I-073, (rac)-((1R,2R,3S,4R)-4-(2-(3-benzoylphenyl)pyrazolo[1,5-a]pyrimidin-7-ylamino)-2,3-dihydroxycyclopentyl)methyl rel-sulfamate], the inhibition at 0.111 µM was determined as 91%.

`NS(=O)(=O)OC[C@H]1C[C@@H](Nc2ccnc3cc(-c4ccc5c(c4)oc4ccccc45)nn23)[C@H](O)[C@@H]1O` (relative stereo) [Compound I-093, (rac)-((1R,2R,3S,4R)-4-(2-(dibenzo[b,d]furan-3-yl)pyrazolo[1,5-a]pyrimidin-7-ylamino)-2,3-dihydroxycyclopentyl)methyl rel-sulfamate]: the inhibition at 0.111 µM amounted to 100%.

In the case of `NS(=O)(=O)OC[C@H]1C[C@@H](Nc2ccnc3cc(-c4c(OC(F)F)ccc5ccccc45)nn23)[C@H](O)[C@@H]1O` [Compound I-110, (s.e.)-((1R,2R,3S,4R)-4-(2-(2-(difluoromethoxy)naphthalen-1-yl)pyrazolo[1,5-a]pyrimidin-7-ylamino)-2,3-dihydroxycyclopentyl)methyl sulfamate], the inhibition at 0.111 µM turned out to be 100%.

Turning to `NS(=O)(=O)OC[C@H]1C[C@@H](Nc2ccnc3cc(-c4cccc(C(F)(F)F)n4)nn23)[C@H](O)[C@@H]1O` (relative stereo) [Compound I-064, (rac)-((1R,2R,3S,4R)-2,3-dihydroxy-4-(2-(6-(trifluoromethyl)pyridin-2-yl)pyrazolo[1,5-a]pyrimidin-7-ylamino)cyclopentyl)methyl rel-sulfamate], the inhibition at 0.111 µM was 96%.

`COc1ccc(OC(F)(F)F)cc1-c1cc2nccc(N[C@@H]3C[C@H](COS(N)(=O)=O)[C@@H](O)[C@H]3O)n2n1` (relative stereo) [Compound I-066, (rac)-((1R,2R,3S,4R)-2,3-Dihydroxy-4-((2-(2-methoxy-5-(trifluoromethoxy)-phenyl)pyrazolo[1,5-a]pyrimidin-7-yl)amino)cyclopentyl)methyl rel-sulfamate]: the inhibition at 0.111 µM amounted to 100%.

For `NS(=O)(=O)OC[C@H]1C[C@@H](Nc2ccnc3cc(-c4cccc(OC(F)F)c4)nn23)[C@H](O)[C@@H]1O` (relative stereo) [Compound I-050, (rac)-((1R,2R,3S,4R)-4-((2-(3-(Difluoromethoxy)phenyl)pyrazolo[1,5-a]pyrimidin-7-yl)amino)-2,3-dihydroxycyclopentyl)methyl rel-sulfamate], the inhibition at 0.111 µM came to 100%.

With `NS(=O)(=O)OC[C@H]1C[C@@H](Nc2ccnc3cc(-c4c[nH]c5ccc(Cl)cc45)nn23)[C@H](O)[C@@H]1O` (relative stereo) [Compound I-054, (rac)-[(1R,2R,3S,4R)-4-{[2-(5-chloro-1H-indol-3-yl)pyrazolo[1,5-a]pyrimidin-7-yl]amino}-2,3-dihydroxycyclopentyl]methyl rel-sulfamate], the inhibition at 0.111 µM was found to be 100%.

For the compound `NS(=O)(=O)OC[C@H]1C[C@@H](Nc2ccnc3cc(-c4cc5ccccc5[nH]4)nn23)[C@H](O)[C@@H]1O` (relative stereo) [Compound I-024, (rac)-((1R,2R,3S,4R)-4-(2-(1H-indol-2-yl)pyrazolo[1,5-a]pyrimidin-7-ylamino)-2,3-dihydroxycyclopentyl)methyl rel-sulfamate], the inhibition at 0.111 µM stood at 98%.

For `Cc1ccc2ccccc2c1-c1cc2nccc(N[C@@H]3C[C@H](COS(N)(=O)=O)[C@@H](O)[C@H]3O)n2n1` [Compound I-114, (s.e.)-((1R,2R,3S,4R)-2,3-dihydroxy-4-(2-(2-methylnaphthalen-1-yl)pyrazolo[1,5-a]pyrimidin-7-ylamino)cyclopentyl)methyl sulfamate], the inhibition at 0.111 µM is 99%.

Regarding `NS(=O)(=O)OC[C@H]1C[C@@H](Nc2ccnc3cc(-c4cccc(N5CCOCC5)c4)nn23)[C@H](O)[C@@H]1O` (relative stereo) [Compound I-078, (rac)-((1R,2R,3S,4R)-2,3-dihydroxy-4-(2-(3-morpholinophenyl)pyrazolo[1,5-a]pyrimidin-7-ylamino)cyclopentyl)methyl rel-sulfamate], the inhibition at 0.111 µM was found to be 100%.

`NS(=O)(=O)OC[C@H]1C[C@@H](Nc2ccnc3cc(-c4cccc5ccccc45)nn23)[C@H](O)[C@@H]1O` [Compound I-098, (s.e.)-((1R,2R,3S,4R)-2,3-dihydroxy-4-{[2-(1-naphthyl)pyrazolo[1,5-a]pyrimidin-7-yl]amino}cyclopentyl)methyl sulfamate]: the inhibition at 0.111 µM is 100%.

`CC1(C)COc2c(-c3cc4nccc(N[C@@H]5C[C@H](COS(N)(=O)=O)[C@@H](O)[C@H]5O)n4n3)cccc21` (relative stereo) [Compound I-023, (rac)-((1R,2R,3S,4R)-4-(2-(3,3-dimethyl-2,3-dihydrobenzofuran-7-yl)pyrazolo[1,5-a]pyrimidin-7-ylamino)-2,3-dihydroxycyclopentyl)methyl rel-sulfamate]: the inhibition at 0.111 µM worked out at 96%.

Consider `NS(=O)(=O)OC[C@H]1C[C@@H](Nc2ccnc3cc(-c4cnc5ccccc5c4)nn23)[C@H](O)[C@@H]1O` (relative stereo) [Compound I-025, (rac)-((1R,2R,3S,4R)-2,3-dihydroxy-4-(2-(quinolin-3-yl)pyrazolo[1,5-a]pyrimidin-7-ylamino)cyclopentyl)methyl rel-sulfamate], for which the inhibition at 0.111 µM amounted to 93%.

For `NS(=O)(=O)OC[C@H]1C[C@@H](Nc2ccnc3cc(-c4ccc(Cl)cc4Cl)nn23)[C@H](O)[C@@H]1O` (relative stereo) [Compound I-013, (rac)-[(1R,2R,3S,4R)-4-{[2-(2,4-dichlorophenyl)pyrazolo[1,5-a]pyrimidin-7-yl]amino}-2,3-dihydroxycyclopentyl]methyl rel-sulfamate], the inhibition at 0.111 µM stood at 84%.

As to `NS(=O)(=O)OC[C@H]1C[C@@H](Nc2ccnc3cc(-c4cccc(SC(F)(F)F)c4)nn23)[C@H](O)[C@@H]1O` (relative stereo) [Compound I-044, (rac)-((1R,2R,3S,4R)-2,3-dihydroxy-4-(2-(3-(trifluoromethylthio)phenyl)pyrazolo[1,5-a]pyrimidin-7-ylamino)cyclopentyl)methyl rel-sulfamate], the inhibition at 0.111 µM was 100%.

For the compound `NS(=O)(=O)OC[C@H]1C[C@@H](Nc2ccnc3cc(-c4coc5ccccc45)nn23)[C@H](O)[C@@H]1O` (relative stereo) [Compound I-049, (rac)-((1R,2R,3S,4R)-4-(2-(benzofuran-3-yl)pyrazolo[1,5-a]pyrimidin-7-ylamino)-2,3-dihydroxycyclopentyl)methyl rel-sulfamate], the inhibition at 0.111 µM was 100%.

Turning to `COc1ccc(Cl)cc1-c1cc2nccc(N[C@@H]3C[C@H](COS(N)(=O)=O)[C@@H](O)[C@H]3O)n2n1` (relative stereo) [Compound I-020, (rac)-((1R,2R,3S,4R)-4-(2-(5-chloro-2-methoxyphenyl)pyrazolo[1,5-a]pyrimidin-7-ylamino)-2,3-dihydroxycyclopentyl)methyl rel-sulfamate], the inhibition at 0.111 µM turned out to be 100%.

As to `NS(=O)(=O)OC[C@H]1C[C@@H](Nc2ccnc3cc(-c4cccc(Cc5ccccc5)c4)nn23)[C@H](O)[C@@H]1O` (relative stereo) [Compound I-069, (rac)-((1R,2R,3S,4R)-4-(2-(3-benzylphenyl)pyrazolo[1,5-a]pyrimidin-7-ylamino)-2,3-dihydroxycyclopentyl)methyl rel-sulfamate], the inhibition at 0.111 µM came out at 84%.

As to `NS(=O)(=O)OC[C@H]1C[C@@H](Nc2ccnc3cc(-c4cccc5c4oc4ccccc45)nn23)[C@H](O)[C@@H]1O` (relative stereo) [Compound I-010, (rac)-((1R,2R,3S,4R)-4-(2-(dibenzo[b,d]furan-4-yl)pyrazolo[1,5-a]pyrimidin-7-ylamino)-2,3-dihydroxycyclopentyl)methyl rel-sulfamate], the inhibition at 0.111 µM is 100%.

Take `NS(=O)(=O)OC[C@H]1C[C@@H](Nc2ccnc3cc(-c4cc(C(F)(F)F)ccc4F)nn23)[C@H](O)[C@@H]1O` (relative stereo) [Compound I-029, (rac)-((1R,2R,3S,4R)-4-((2-(2-Fluoro-5-(trifluoromethyl)phenyl)pyrazolo[1,5-a]pyrimidin-7-yl)amino)-2,3-dihydroxycyclopentyl)methyl rel-sulfamate]: the inhibition at 0.111 µM came to 100%.

In the case of `NS(=O)(=O)OC[C@H]1C[C@@H](Nc2ccnc3cc(-c4ccnc(C(F)(F)F)c4)nn23)[C@H](O)[C@@H]1O` (relative stereo) [Compound I-059, (rac)-((1R,2R,3S,4R)-2,3-dihydroxy-4-(2-(2-(trifluoromethyl)pyridin-4-yl)pyrazolo[1,5-a]pyrimidin-7-ylamino)cyclopentyl)methyl rel-sulfamate], the inhibition at 0.111 µM stood at 94%.

As usually defined, the inhibition is the drop in the measured response relative to a control, in per cent.
